The record followed here is patent US9670157B2, “Benzylamine derivatives” (KALVISTA PHARMACEUTICALS LIMITED, priority 2013, dated 2017).

For test [1], the target named is Human KLK1 (Homo sapiens (Human), UniProt P06870). The experiment in a line: Determination of the IC50 for KLK1. It counts as biochemical. The following applies: 37° C., fluorogenic substrate H-DVal-Leu-Arg-AFC. An outline of the steps: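 KLK1 inhibition was measured in vitro following standard published methods. Human KLK1 (Callbiochem) was incubated at 37° C. with the fluorogenic substrate H-DVal-Leu-Arg-AFC in the presence of a range of test compound concentrations. Residual enzyme activity, taken as the initial reaction rate, was followed by the change in optical absorbance at 410 nm, and IC50 values were derived.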

Test [2] addresses Human plasma kallikrein (Homo sapiens (Human), UniProt P03952). In words: Determination of the IC50 for Plasma Kallikrein. To be noted: 37° C., fluorogenic substrate H-DPro-Phe-Arg-AFC; read-out: IC50 (human PKal). It is filed as biochemical. Here is the method: Human plasma kallikrein (Protogen) was incubated at 37° C. with the fluorogenic substrate H-DPro-Phe-Arg-AFC and various concentrations of the test compound. Residual enzyme activity (initial rate of reaction) was determined by measuring the change in optical absorbance at 410 nm and the IC50 value for the test compound was determined.

Each structure is given as a SMILES string.

Chain of Human plasma kallikrein (P03952 391-638): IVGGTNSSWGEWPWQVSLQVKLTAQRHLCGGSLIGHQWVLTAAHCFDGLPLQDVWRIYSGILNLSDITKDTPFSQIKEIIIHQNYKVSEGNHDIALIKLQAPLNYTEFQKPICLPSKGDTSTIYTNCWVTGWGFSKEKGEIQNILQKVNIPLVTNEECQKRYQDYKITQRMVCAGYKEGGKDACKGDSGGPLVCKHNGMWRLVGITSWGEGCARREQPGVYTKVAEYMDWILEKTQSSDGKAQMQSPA
Chain of Human plasma kallikrein (P03952 20-390 partner): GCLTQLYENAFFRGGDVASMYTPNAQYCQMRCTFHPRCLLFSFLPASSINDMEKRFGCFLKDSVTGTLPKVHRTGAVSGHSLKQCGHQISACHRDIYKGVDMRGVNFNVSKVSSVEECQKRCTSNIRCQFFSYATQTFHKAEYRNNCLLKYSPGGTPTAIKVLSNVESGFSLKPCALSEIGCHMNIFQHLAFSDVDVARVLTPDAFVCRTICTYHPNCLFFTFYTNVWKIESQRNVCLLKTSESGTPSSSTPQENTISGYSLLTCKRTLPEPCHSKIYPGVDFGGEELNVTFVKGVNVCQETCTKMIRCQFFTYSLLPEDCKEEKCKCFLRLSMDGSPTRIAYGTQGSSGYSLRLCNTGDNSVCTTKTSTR
Chain of Human KLK1 (P06870 25-262): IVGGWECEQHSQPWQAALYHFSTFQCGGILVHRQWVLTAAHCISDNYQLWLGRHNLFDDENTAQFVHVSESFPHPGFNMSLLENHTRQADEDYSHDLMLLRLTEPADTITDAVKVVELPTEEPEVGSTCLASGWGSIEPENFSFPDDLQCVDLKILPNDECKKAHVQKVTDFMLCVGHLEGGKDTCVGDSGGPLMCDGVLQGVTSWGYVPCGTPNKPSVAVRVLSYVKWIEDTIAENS

With `Cc1cnn(Cc2ccc(Cn3c(C)cc(C(=O)NCc4ccc(CN)cc4)c3C)cc2)c1` [Example 96, 2,5-Dimethyl-1-[4-(4-methyl-pyrazol-1-ylmethyl)-benzyl]-1H-pyrrole-3-carboxylic acid 4-aminomethyl-benzylamide], the IC50 is over 10000 nM in test [1] and 63 nM in test [2].

Turning to `Cc1cnn(Cc2ccc(Cn3c(C)cc(C(=O)NCc4ccc(CN)cc4C)c3C)cc2)c1` [Example 97, 2,5-Dimethyl-1-[4-(4-methyl-pyrazol-1-ylmethyl)-benzyl]-1H-pyrrole-3-carboxylic acid 4-aminomethyl-2-methyl-benzylamide], the IC50 in test [1] is over 10000 nM; in test [2], 28 nM.

As to `Cc1cnn(Cc2ccc(Cn3c(C)cc(C(=O)NCc4ccc(C5(N)CC5)cc4)c3C)cc2)c1` [Example 98, 2,5-Dimethyl-1-[4-(4-methyl-pyrazol-1-ylmethyl)-benzyl]-1H-pyrrole-3-carboxylic acid 4-(1-amino-cyclopropyl)-benzylamide], the IC50 in test [1] was over 10000 nM; in test [2], 701 nM.

For the compound `CCn1c(C(=O)NCc2ccc(CN)cc2C)cc(C)c1Cc1ccc(Cn2cc(C)cn2)cc1` [Example 99, 1-Ethyl-4-methyl-5-[4-(4-methyl-pyrazol-1-ylmethyl)-benzyl]-1H-pyrrole-2-carboxylic acid 4-aminomethyl-2-methyl-benzylamide], the IC50 is over 10000 nM in test [1] and 38 nM in test [2].

As to `CCn1c(C(=O)NCc2ccc(C3(N)CC3)cc2)cc(C)c1Cc1ccc(Cn2cc(C)cn2)cc1` [Example 100, 1-Ethyl-4-methyl-5-[4-(4-methyl-pyrazol-1-ylmethyl)-benzyl]-1H-pyrrole-2-carboxylic acid 4-(1-amino-cyclopropyl)-benzylamide], the half-inhibitory concentration (IC50) was over 10000 nM in test [1] and 2320 nM in test [2].

As to `CCn1c(C(=O)NCc2c(C)cc(CN)cc2C)cc(C)c1Cc1ccc(Cn2cc(C)cn2)cc1` [Example 102, 1-Ethyl-4-methyl-5-[4-(4-methyl-pyrazol-1-ylmethyl)-benzyl]-1H-pyrrole-2-carboxylic acid 4-aminomethyl-2,6-dimethyl-benzylamide], the IC50 in test [1] was 4270 nM; in test [2] it was 11 nM.

Take `Cc1cnn(Cc2ccc(Cn3cc(C(=O)NCc4ccc(C5(N)CC5)cc4)cn3)cc2)c1` [Example 103, 1-[4-(4-Methyl-pyrazol-1-ylmethyl)-benzyl]-1H-pyrazole-4-carboxylic acid 4-(1-amino-cyclopropyl)-benzylamide]: the IC50 is over 10000 nM in test [1] and 694 nM in test [2].

For the compound `Cc1cnn(Cc2ccc(Cn3cnc(C(=O)NCc4ccc(CN)cc4)c3)cc2)c1` [Example 104, 1-[4-(4-Methyl-pyrazol-1-ylmethyl)-benzyl]-1H-imidazole-4-carboxylic acid 4-aminomethyl-benzylamide], the IC50 in test [1] was over 10000 nM; in test [2], 30 nM.

For `Cc1cnn(Cc2ccc(Cn3cnc(C(=O)NCc4ccc(C5(N)CC5)cc4)c3)cc2)c1` [Example 105, 1-[4-(4-Methyl-pyrazol-1-ylmethyl)-benzyl]-1H-imidazole-4-carboxylic acid 4-(1-amino-cyclopropyl)-benzylamide], the IC50 in test [1] is over 10000 nM; in test [2] it was 941 nM.

In the case of `Cc1cnn(Cc2ccc(Cn3cc(C(=O)NCc4ccc(CN)cc4C)cn3)cc2)c1` [Example 106, 1-[4-(4-Methyl-pyrazol-1-ylmethyl)-benzyl]-1H-pyrazole-4-carboxylic acid 4-aminomethyl-2-methyl-benzylamide], the IC50 in test [1] was over 10000 nM; in test [2] it was 2 nM.

Turning to `Cc1cnn(Cc2ccc(Cn3cnc(C(=O)NCc4ccc(CN)cc4C)c3)cc2)c1` [Example 107, 1-[4-(4-Methyl-pyrazol-1-ylmethyl)-benzyl]-1H-imidazole-4-carboxylic acid 4-aminomethyl-2-methyl-benzylamide], the IC50 in test [1] is over 10000 nM; in test [2] it was 3 nM.

For `Cc1cnn(Cc2ccc(Cn3cc(C(=O)NCc4ccc(CN)cc4)nn3)cc2)c1` [Example 108, 1-[4-(4-Methyl-pyrazol-1-ylmethyl)-benzyl]-1H-[1,2,3]triazole-4-carboxylic acid 4-aminomethyl-benzylamide], the values for the IC50 in test [1] and in test [2] were over 10000 nM and 33 nM, respectively.

Turning to `Cc1cnn(Cc2ccc(Cn3cc(C(=O)NCc4ccc(CN)cc4C)nn3)cc2)c1` [Example 109, 1-[4-(4-Methyl-pyrazol-1-ylmethyl)-benzyl]-1H-[1,2,3]triazole-4-carboxylic acid 4-aminomethyl-2-methyl-benzylamide], the IC50 in test [1] is over 10000 nM; in test [2], 5 nM.

On to `Cc1cnn(Cc2ccc(Cn3cc(C(=O)NCc4ccc(C5(N)CC5)cc4)nn3)cc2)c1` [Example 110, 1-[4-(4-Methyl-pyrazol-1-ylmethyl)-benzyl]-1H-[1,2,3]triazole-4-carboxylic acid 4-(1-amino-cyclopropyl)-benzylamide], for which the IC50 in test [1] is over 10000 nM; in test [2], 2580 nM.

For the compound `Cc1cnn(Cc2ccc(Cn3cc(C(=O)NCc4c(C)cc(CN)cc4C)cn3)cc2)c1` [Example 111, 1-[4-(4-Methyl-pyrazol-1-ylmethyl)-benzyl]-1H-pyrazole-4-carboxylic acid 4-aminomethyl-2,6-dimethyl-benzylamide], the IC50 in test [1] is over 10000 nM; in test [2], 1 nM.

For the compound `Cc1cnn(Cc2ccc(Cn3cnc(C(=O)NCc4c(C)cc(CN)cc4C)c3)cc2)c1` [Example 112, 1-[4-(4-Methyl-pyrazol-1-ylmethyl)-benzyl]-1H-imidazole-4-carboxylic acid 4-aminomethyl-2,6-dimethyl-benzylamide], the IC50 in test [1] was over 10000 nM; in test [2], 2 nM.

`Cc1cnn(Cc2ccc(Cn3cc(C(=O)NCc4c(C)cc(CN)cc4C)nn3)cc2)c1` [Example 113, 1-[4-(4-Methyl-pyrazol-1-ylmethyl)-benzyl]-1H-[1,2,3]triazole-4-carboxylic acid 4-aminomethyl-2,6-dimethyl-benzylamide]: the IC50 in test [1] was over 10000 nM; in test [2] it was 2 nM.

As to `Cc1cnn(Cc2ccc(Cn3cc(C(=O)NCc4c(C)cc(CN)cc4C)c(C)n3)cc2)c1` [Example 114, 3-Methyl-1-[4-(4-methyl-pyrazol-1-ylmethyl)-benzyl]-1H-pyrazole-4-carboxylic acid 4-aminomethyl-2,6-dimethyl-benzylamide], the IC50 in test [1] was over 10000 nM; in test [2], 0.6 nM.

In the case of `Cc1cnn(Cc2ccc(Cn3ncc(C(=O)NCc4c(C)cc(CN)cc4C)c3C)cc2)c1` [Example 115, 5-Methyl-1-[4-(4-methyl-pyrazol-1-ylmethyl)-benzyl]-1H-pyrazole-4-carboxylic acid 4-aminomethyl-2,6-dimethyl-benzylamide], the figures for the IC50 in test [1] and in test [2] were over 10000 nM and 8 nM, respectively.

As for `Cc1cnn(Cc2ccc(Cn3nc(C)c(C(=O)NCc4c(C)cc(CN)cc4C)c3C)cc2)c1` [Example 116, 3,5-Dimethyl-1-[4-(4-methyl-pyrazol-1-ylmethyl)-benzyl]-1H-pyrazole-4-carboxylic acid 4-aminomethyl-2,6-dimethyl-benzylamide], the IC50 in test [1] was over 10000 nM; in test [2], 11700 nM.

As for `Cc1cnn(Cc2ccc(Cn3cc(C(=O)NCc4ccc(CN)c(F)c4)c(C(F)(F)F)n3)cc2)c1` [Example 117, 1-[4-(4-Methyl-pyrazol-1-ylmethyl)-benzyl]-3-trifluoromethyl-1H-pyrazole-4-carboxylic acid 4-aminomethyl-3-fluoro-benzylamide], the values for the IC50 in test [1] and in test [2] were over 10000 nM and 51 nM, respectively.

For `Cc1cnn(Cc2ccc(Cn3cc(C(=O)NCc4c(C)cc(CN)cc4C)c(C(F)(F)F)n3)cc2)c1` [Example 118, 1-[4-(4-Methyl-pyrazol-1-ylmethyl)-benzyl]-3-trifluoromethyl-1H-pyrazole-4-carboxylic acid 4-aminomethyl-2,6-dimethyl-benzylamide], the IC50 in test [1] was over 10000 nM; in test [2] it was 1 nM.

`CCn1c(C(=O)NCc2ccc(CN)cc2)cc(C)c1Cc1ccc(Cn2cc(C)cn2)cc1` [Example 121, 1-Ethyl-4-methyl-5-[4-(4-methyl-pyrazol-1-ylmethyl)-benzyl]-1H-pyrrole-2-carboxylic acid 4-aminomethyl-benzylamide]: the IC50 was over 10000 nM in test [1] and 155 nM in test [2].

Take `CCn1c(C(=O)NCc2ccc(CN)cc2)cc(C)c1Cc1ccc(Cn2ccccc2=O)cc1` [Example 122, 1-Ethyl-4-methyl-5-[4-(2-oxo-2H-pyridin-1-ylmethyl)-benzyl]-1H-pyrrole-2-carboxylic acid 4-aminomethyl-benzylamide]: the IC50 in test [1] was over 10000 nM; in test [2], 151 nM.

As for `CCn1c(C(=O)NCc2ccc(CN)cc2)cc(C)c1Cc1csc(-c2ccccc2)n1` [Example 123, 1-Ethyl-4-methyl-5-(2-phenyl-thiazol-4-ylmethyl)-1H-pyrrole-2-carboxylic acid 4-aminomethyl-benzylamide], the IC50 in test [1] was over 10000 nM; in test [2], 2150 nM.

For `Cc1ccc2cc(Cn3c(C)cc(C(=O)NCc4c(C)cc(CN)cc4C)c3C)ccc2n1` [Example 128, 2,5-Dimethyl-1-(2-methyl-quinolin-6-ylmethyl)-1H-pyrrole-3-carboxylic acid 4-aminomethyl-2,6-dimethyl-benzylamide], the IC50 in test [1] was 2660 nM; in test [2] it was 934 nM.

`Cc1cc(CN)cc(C)c1CNC(=O)c1cn(Cc2ccnc(N3CCCC3)c2)nc1C(F)(F)F` [Example 129, 1-(2-Pyrrolidin-1-yl-pyridin-4-ylmethyl)-3-trifluoromethyl-1H-pyrazole-4-carboxylic acid 4-aminomethyl-2,6-dimethyl-benzylamide]: the figures for the IC50 in test [1] and in test [2] were over 10000 nM and 24 nM, respectively.
